In patent EP1714639A1, “Cosmetic compositions containing piperazine derivatives” (L'ORÉAL, priority 2005, dated 2006):

Experiments:
[1] = system: cellules musculaires striées humaines; test: nerve-muscle co-culture test (inhibition of muscle fibre contractions); type: cell-based; settings: for inhibition at 10 µM / inhibition at 100 µM: 60 s incubation, contractions counted over 30 s, triplicate, read-out: % d'inhibition des contractions
From the text: Les composés des Exemples 1 et 2 ont été testés sur un modèle de co-culture nerfs-muscles qui permet de recréer un arc moteur en innervant des cellules musculaires striées humaines avec des explants de moelle épinière et de ganglions rachidiens d'embryons de rat.
Des cellules musculaires humaines, issues de prélèvements de muscles striés de donneur sain, sont ensemencées dans des puits de 1,8 cm^2 de section (boîtes de culture de 24 puits). Après 10 jours de culture, ces cellules forment une monocouche et fusionnent. A ce stade, des explants de moelle épinière d'embryons de rat de 13 jours contenant les ganglions rachidiens sont déposées sur la culture.
La croissance des neurites est visible en dehors de l'explant de moelle épinière après un jour de culture. Les premières contractions des fibres musculaires sont observées après 5 à 6 jours de co-culture et après 3 semaines, toutes les fibres musculaires au voisinage des explants se contractent.
Le co-cultures sont utilisées après 21 jours, quand les fibres musculaires sont striées et possèdent des jonctions neuromusculaires différenciées matures.
Une fibre musculaire ayant des contractions régulières (au moins 60 contractions par minute) est alors sélectionnée dans trois puits de culture différents et le nombre de contractions est comptabilisé sur 30 secondes. Les composés testés, dilués dans le DMSO, sont ensuite incubés pendant 60 secondes dans ces puits, à la concentration de 10 µM pour le composé de l'Exemple 1 et de 10 et 100 µM pour le composé de l'Exemple 2. A la fin de l'incubation, le nombre de contractions est à nouveau comptabilisé sur 30 secondes. Le test est réalisé en triplicata.

[2] = system: canaux calciques de type L; test: binding test on L-type calcium channels ([3H](-) D 888 displacement, verapamil site); design: species or system rat; settings: for % inhibition de la liaison: 1 µM in DMSO, [3H](-) D 888 0.5 nM, rat cerebral cortex homogenates, 60 min/22°C
Procedure: On a évalué la capacité des composés des Exemples 1, 4 et 5 (à 1 µM dans le DMSO) à inhiber par compétition la fixation d'[…] de canaux calciques de type L.
Les études sont réalisées à partir d'homogénats de cortex cérébral de rat (membranes isolées présentant à leur surface des canaux calciques de type L) selon la méthode décrite par Reynolds I.J. et al., 1986, J. Pharmacol. Exp. Ther., 237, p.731.
Les conditions expérimentales sont les suivantes :
D888 qui est le [^3H](-) desmethoxyverapamil sert de ligand spécifique radiomarqué et D600 qui est le chlorhydrate de (±)méthoxyvérapamil sert de molécule de référence.
La liaison spécifique d'un ligand (D888 marqué) aux récepteurs (canaux calciques de type L, site vérapamil) est définie comme la différence entre la liaison totale et la liaison non spécifique déterminée en présence d'un excès de ligand froid (non radioactif). Les résultats sont exprimés en pourcentage d'inhibition de la liaison spécifique du témoin en présence du composé testé.

[3] = anti-wrinkle activity in vivo

Row | SMILES | inhibition at 10 µM [1] [%] | inhibition at 100 µM [1] [%] | % inhibition de la liaison [2] [%] | also measured
1 | C(=Cc1ccccc1)CN1CCN(CCCc2ccccc2)CC1 [compound 1, 1-(3-phenyl-2-propenyl)-4-(3-phenylpropyl)-piperazine] | 65 | 100 | 30 | 
2 | c1ccc(CCCN2CCN(CCc3ccccc3)CC2)cc1 [compound 2, 1-(2-phenylethyl)-4-(3-phenylpropyl)-piperazine] | 50 | 100 |  | inhibition de la liaison spécifique du témoin aux canaux calciques ([2]; similar test, concentration 50 µM): 50%
3 | OCCCN1CCN(CCCc2ccccc2)CC1 [compound 4, 1-(3-hydroxpropyl) 4-(3-phenylpropyl)-piperazine] |  |  | 22 | 
4 | CCN1CCN(CCCc2ccccc2)CC1 [compound 5, 1-ethyl 4-(3-phenylpropyl)-piperazine] |  |  | 16 | 
5 | CN1C(=O)CN=C(c2ccccc2)c2cc(Cl)ccc21 [diazépam, reference compound] |  |  |  | contractions des fibres musculaires ([1]; earlier finding of the applicant in this model): inhibait les contractions des fibres musculaires; activité anti-rides [3]: démontrée in vivo
